Molecular target: T1, Recombinant autotaxin (Homo sapiens, UniProt Q13822)
T1 construct: made in house; host or cells: Hi5 insect cells (baculovirus)
Experiment: Autotaxin assay (Amplex Red, LPC substrate)
Assay type: biochemical
Conditions: for IC50: recombinant autotaxin, LPC substrate, Amplex Red detection, values given as upper bounds
Description: Autotaxin activity is measured indirectly by means of Amplex Red Reagent. In this course, Amplex Red is measured as fluorogenic indicator for generated H2O2. Autotaxin converts substrate lysophosphatidylcholine (LPC) to phosphocholine and lysophosphatidylic acid (LPA). After the conversion phosphocholine is reacted with alkaline phosphatase to obtain inorganic phosphate and choline. During the next step choline is oxidized with choline oxidase to yield betaine, whereby H2O2 is generated. H2O2 reacts with Amplex Red Reagent in the presence of peroxidase (Horseradish peroxidase) in an 1:1 stochiometry and yields highly fluorescent resorufin. The generated fluorescence is measured in a reaction-dependent kinetic mode in order to enable subtraction of fluorescence signals of possible other fluorescent compounds that are not part of the reaction from total measured fluorescence.
1.5 μl of a standard solution or of the compounds of the invention are dissolved in 20 mM Hepes pH 7.2 with maximally 7.7% DMSO in individual concentrations. The resulting solution is pre-incubated together with 10 μl (16 ng) of highly purified recombinant autotaxin in a black 384-hole microtiter plate for 30 min at 22° C.
Thereafter, the reaction is started through the addition of 5 μL-a-lysophosphatidyl-choline (LPC), whereby the final concentration of LPC is 75 μM. The mixture is incubated for 90 min. at 37° C. After the incubation Amplex Red Reagent, peroxidase (Horseradish peroxidase) and choline oxidase are added. The fluorescence is immediately measured at a wavelength of 612 nm with an excitation wavelength of 485 nm in a “Tecan Ultra multimode” fluorescence reader. The activity of autotaxin is indirectly calculated via the amount of detected generated H2O2.
For IC50 analysis, ten serial 1:3 dilutions starting at 30 μM for each compound were run in duplicates.
IC50 values were calculated on normalized data. For normalization, control wells were added to each assay plate and the signal of uninhibited control wells was set to 100%, whereas the signal inhibited by 500 μM C14 LPA, (Avanti Polar Lipids, Cat#857120P) was set to 0%. Curves were fitted and IC50 values calculated by the following model using proprietory analysis software: Y=Bottom+(100−Bottom)/(1+10^((Log IC50−X)*HillSlope)) Where X is the logarithm of concentration. Y is the response; Y starts at Bottom and goes to Top with a sigmoid shape. Material
Microtiter plate: PS-Microplate, 384-hole, small volume, black Corning, Cat#3677
Protein: Recombinant autotaxin (baculoviral Hi5 expression)
Substrate: L-a-lysophosphatidyl choline (chicken egg); Avanti Polar Lipids #830071P
Standard: C14 LPA, Avanti Polar Lipids, Cat#857120P
Detection Reagent: Amplex Red Reagent; Invitrogen #A12222; dissolved in 1.923 ml of DMSO peroxidase Type VI-A (horseradish), Sigma #P6782; dissolved in 7.45 ml of test buffer, Choline Oxidase; Sigma #C5896; dissolved in 2.47 ml test buffer
Detection Reagent Mix: 1:100 dilution of Amplex Red Regent in test buffer
Test buffer: 200 mM Tris-HCl, Merck, Cat #1.08219, pH 7.9; 0.1% BSA, lipid free, Roche Cat#775835

O=C(CCc1ccccc1O)N1CCC(C2CCN(C(=O)c3ccccc3-c3cccc(C(F)(F)F)c3)CC2)CC1 [Compound 1, 3-(2-Hydroxy-phenyl)-1-[1′-(3′-trifluoromethyl-biphenyl-2-carbonyl)-[4,4′]bipiperidinyl-1-yl]-propan-1-one]
IC50: < 1000 nM

O=C(Nc1ccc2[nH]nnc2c1)C1CC(=O)N(C2CCN(C(=O)OCc3ccc(Cl)cc3)CC2)C1 (stereo not shown) [Compound 2, 4-[4-(1H-Benzotriazol-5-ylcarbamoyl)-2-oxo-pyrrolidin-1-yl]-piperidine-1-carboxylic acid 4-chloro-benzyl ester]
IC50: < 1000 nM

O=C(Nc1ccc2[nH]nnc2c1)C1CC(=O)N(C2CCN(C(=O)CCc3ccc(C(F)(F)F)cc3)CC2)C1 (stereo not shown) [Compound 3, 5-Oxo-1-{1-[3-(4-trifluoromethyl-phenyl)-propionyl]-piperidin-4-yl}-pyrrolidine-3-carboxylic acid (1H-benzotriazol-5-yl)-amide]
IC50: < 1000 nM

O=C(Nc1ccc2[nH]nnc2c1)C1CC(=O)N(C2CCN(C(=O)OCc3cc(Cl)cc(Cl)c3)CC2)C1 (stereo not shown) [Compound 4, 4-[4-(1H-Benzotriazol-5-ylcarbamoyl)-2-oxo-pyrrolidin-1-yl]-piperidine-1-carboxylic acid 3,5-dichloro-benzyl ester]
IC50: < 1000 nM

O=C(Nc1ccc2[nH]c(=O)oc2c1)c1cncc(N2CCN(C(=O)OCc3ccc(Cl)cc3)CC2)c1 [Compound 5, 4-[5-(2-Oxo-2,3-dihydro-benzooxazol-6-ylcarbamoyl)-pyridin-3-yl]-piperazine-1-carboxylic acid 4-chloro-benzyl ester]
IC50: < 10000 nM

O=C(Nc1ccc2[nH]nnc2c1)c1cncc(N2CCN(C(=O)OCc3ccc(Cl)cc3)CC2)c1 [Compound 6, 4-[5-(1H-Benzotriazol-5-ylcarbamoyl)-pyridin-3-yl]-piperazine-1-carboxylic acid 4-chloro-benzyl ester]
IC50: < 30000 nM

O=C(NC1CCN(C2CCN(C(=O)OCc3ccc(Cl)cc3)CC2)C1)c1ccc2[nH]nnc2c1 (stereo not shown) [Compound 7, 4-{3-[(1H-Benzotriazole-5-carbonyl)-amino]-pyrrolidin-1-yl}-piperidine-1-carboxylic acid 4-chloro-benzyl ester]
IC50: < 10000 nM

O=C(NC1CCN(C2CCN(C(=O)OCc3cc(Cl)cc(Cl)c3)CC2)C1)c1ccc2[nH]nnc2c1 (stereo not shown) [Compound 9, 4-{3-[(1H-Benzotriazole-5-carbonyl)-amino]-pyrrolidin-1-yl}-piperidine-1-carboxylic acid 3,5-dichloro-benzyl ester]
IC50: < 1000 nM

O=C(Nc1ccc2[nH]nnc2c1)c1cccc(N2CCN(C(=O)OCc3ccc(Cl)cc3)CC2)c1 [Compound 10, 4-[3-(1H-Benzotriazol-5-ylcarbamoyl)-phenyl]-piperazine-1-carboxylic acid 4-chloro-benzyl ester]
IC50: < 30000 nM

Cc1ccc(-c2ccccc2C(=O)N2CCC(C3CCN(C(=O)c4ccc5[nH]nnc5c4)CC3)CC2)cc1 [Compound 11, [1′-(1H-Benzotriazole-5-carbonyl)-[4,4′]bipiperidinyl-1-yl]-(4′-methyl-biphenyl-2-yl)-methanone]
IC50: < 1000 nM

O=C(OCc1cc(Cl)cc(Cl)c1)N1CCC(C2CCN(C(=O)c3ccc4[nH]nnc4c3)CC2)CC1 [Compound 12, 1′-(1H-Benzotriazole-5-carbonyl)-[4,4′]bipiperidinyl-1-carboxylic acid 3,5-dichloro-benzyl ester]
IC50: < 1000 nM

Cc1ccc(-c2cccc(C(=O)N3CCC(C4CCN(C(=O)c5ccc6[nH]nnc6c5)CC4)CC3)c2)cc1 [Compound 13, [1′-(1H-Benzotriazole-5-carbonyl)-[4,4′]bipiperidinyl-1-yl]-(4′-methyl-biphenyl-3-yl)-methanone]
IC50: < 10000 nM

O=C(Nc1ccc2[nH]c(=O)oc2c1)C1CC(=O)N(C2CCN(C(=O)OCc3cc(Cl)cc(Cl)c3)CC2)C1 (stereo not shown) [Compound 15, 4-[2-Oxo-4-(2-oxo-2,3-dihydro-benzooxazol-6-ylcarbamoyl)-pyrrolidin-1-yl]-piperidine-1-carboxylic acid 3,5-dichloro-benzyl ester]
IC50: < 1000 nM

O=C(Nc1ccc2[nH]c(=O)oc2c1)C1CC(=O)N(C2CCN(C(=O)OCc3ccc(Cl)cc3)CC2)C1 (stereo not shown) [Compound 16, 4-[2-Oxo-4-(2-oxo-2,3-dihydro-benzooxazol-6-ylcarbamoyl)-pyrrolidin-1-yl]-piperidine-1-carboxylic acid 4-chloro-benzyl ester]
IC50: < 10000 nM

O=C(NCCc1ccccn1)C1CC(=O)N(C2CCN(C(=O)OCc3cc(Cl)cc(Cl)c3)CC2)C1 (stereo not shown) [Compound 17, 4-[2-Oxo-4-(2-pyridin-2-yl-ethylcarbamoyl)-pyrrolidin-1-yl]-piperidine-1-carboxylic acid 3,5-dichloro-benzyl ester]
IC50: < 10000 nM

O=C(OCc1cc(Cl)cc(Cl)c1)N1CCN(C2CCN(C(=O)c3ccc4[nH]nnc4c3)CC2)CC1 [Compound 19, 4-[1-(1H-Benzotriazole-5-carbonyl)-piperidin-4-yl]-piperazine-1-carboxylic acid 3,5-dichloro-benzyl ester]
IC50: < 1000 nM

O=C(OCc1cc(Cl)cc(Cl)c1)N1CCC(N2CCN(C(=O)c3ccc4[nH]nnc4c3)CC2)CC1 [Compound 20, 4-[4-(1H-Benzotriazole-5-carbonyl)-piperazin-1-yl]-piperidine-1-carboxylic acid 3,5-dichloro-benzyl ester]
IC50: < 1000 nM

O=C(CCc1ccccc1O)N1CCC(N2CCN(C(=O)c3ccccc3-c3cccc(C(F)(F)F)c3)CC2)CC1 [Compound 21, 3-(2-Hydroxy-phenyl)-1-{4-[4-(3′-trifluoromethyl-biphenyl-2-carbonyl)-piperazin-1-yl]-piperidin-1-yl}-propan-1-one]
IC50: < 1000 nM

O=C(CCc1ccc(C(F)(F)F)cc1)N1CCC(C2CCN(C(=O)c3ccc4[nH]nnc4c3)CC2)CC1 [Compound 22, 1-[1′-(1H-Benzotriazole-5-carbonyl)-[4,4′]bipiperidinyl-1-yl]-3-(4-trifluoromethyl-phenyl)-propan-1-one]
IC50: < 1000 nM

O=C(Cc1ccc(Cl)cc1)N1CCC(C2CCN(C(=O)c3ccc4[nH]nnc4c3)CC2)CC1 [Compound 23, 1-[1′-(1H-Benzotriazole-5-carbonyl)-[4,4′]bipiperidinyl-1-yl]-2-(4-chloro-phenyl)-ethanone]
IC50: < 30000 nM

Cc1nc(-c2ccc(C(F)(F)F)cc2)sc1C(=O)N1CCC(N2CC(C(=O)Nc3ccc4[nH]nnc4c3)CC2=O)CC1 (stereo not shown) [Compound 24, 1-{1-[4-Methyl-2-(4-trifluoromethyl-phenyl)-thiazole-5-carbonyl]-piperidin-4-yl}-5-oxo-pyrrolidine-3-carboxylic acid (1H-benzotriazol-5-yl)-amide]
IC50: < 10000 nM

O=C(OCc1cc(Cl)cc(Cl)c1)N1CCC(N2CCN(C(=O)c3ccc4[nH]c(=O)oc4c3)CC2)CC1 [Compound 25, 4-[4-(2-Oxo-2,3-dihydro-benzooxazole-6-carbonyl)-piperazin-1-yl]-piperidine-1-carboxylic acid 3,5-dichloro-benzyl ester]
IC50: < 1000 nM

O=C(Nc1ccc2[nH]nnc2c1)C1CC(=O)N(C2CCN(C(=O)OCC3CCCO3)CC2)C1 (stereo not shown) [Compound 27, 4-[4-(1H-Benzotriazol-5-ylcarbamoyl)-2-oxo-pyrrolidin-1-yl]-piperidine-1-carboxylic acid tetrahydro-furan-2-ylmethyl ester]
% CTRL (1E−05) (% of control at 1E−05 (compound concentration), uninhibited control = 100%): 83%

O=C(NCCc1ccncc1)C1CC(=O)N(C2CCN(C(=O)OCc3cc(Cl)cc(Cl)c3)CC2)C1 (stereo not shown) [Compound 28, 4-[2-Oxo-4-(2-pyridin-4-yl-ethylcarbamoyl)-pyrrolidin-1-yl]-piperidine-1-carboxylic acid 3,5-dichloro-benzyl ester]
IC50: < 10000 nM

O=C(OCc1cc(Cl)cc(Cl)c1)N1CCC2(CC1)CCN(C(=O)c1ccc3[nH]nnc3c1)CC2 [Compound 29, 9-(1H-Benzotriazole-5-carbonyl)-3,9-diaza-spiro[5.5]undecane-3-carboxylic acid 3,5-dichloro-benzyl ester]
IC50: < 30000 nM

Reference: patent US9452997B2, “Piperidine and piperazine derivatives as autotaxin inhibitors” (Merck Patent GmbH, priority 2009, dated 2016)
